c1ccc(-n2c(-c3cc(-c4nc5ccccc5n4-c4ccccc4)cc(-c4nc5ccccc5n4-c4ccccc4)c3)nc3ccccc32)cc1
solubility (mole fraction)
Conditions | 283.15 K | 293.15 K | 303.15 K | 313.15 K | 323.15 K
in DMSO | – | 0.00119 | 0.00151 | 0.0023 | 0.0032
in THF | 0.00159 | 0.00202 | 0.00277 | 0.0042 | 0.00451
in acetonitrile | 0.000114 | 0.000135 | 0.000149 | 0.000188 | 0.000232
in chlorobenzene | 0.00588 | 0.00711 | 0.00857 | 0.00941 | 0.0111
in chloroform | 0.00762 | 0.00839 | 0.0092 | 0.01 | 0.0113
in cyclohexane | 2e-07 | 4e-07 | 6e-07 | 1.1e-06 | 1.9e-06
in ethanol | 0.000357 | 0.000437 | 0.000542 | 0.000716 | 0.000932
in ethyl acetate | 0.000711 | 0.000777 | 0.000921 | 0.0012 | 0.00174
in isopropanol | 1.11e-05 | 2.18e-05 | 3.04e-05 | 4.51e-05 | 6.88e-05
in methanol | 0.000236 | 0.000259 | 0.00029 | 0.000307 | 0.000361
in n-butanol | 0.00117 | 0.00132 | 0.00155 | 0.00167 | 0.00192
in n-hexane | 3.9e-06 | 5.8e-06 | 9.5e-06 | 1.46e-05 | 2.22e-05

From BigSolDB 2.1
